Assay results taken from patent US4578383A, “CL 1565 antibiotic compounds” (priority 1984, dated 1986).
Where two headings read alike, the source gives them in different places.

Test system: P388 Lymphatic Leukemia
Assay type: in vivo, Mice
From the text: The test method used is based on that described in Cancer Chemother. Reports 3:1-87 (part 3), 1972.

[1] = 3.1 mg/kg/day (CL 1565-T and CL 1565-B tables)
[2] = 6.3 mg/kg/day (CL 1565-T and CL 1565-B tables)
[3] = 12.5 mg/kg/day (CL 1565-T and CL 1565-B tables)

SMILES	T/C × 100 [1]	T/C × 100 [2]	T/C × 100 [3]	T/C × 100 (toxicity noted) (25.0 mg/kg/day (CL 1565-B table))	T/C × 100 (25.0 mg/kg/day (CL 1565-T table))
CC=CC=CC=CC(O)CC(OP(=O)(O)O)C(C)(O)C=CC1CC=CC(=O)O1 (centres unmarked) [CL 1565-B]	129	142	178	Toxic	–
CC(O)(C=CC1OC(=O)C=CC1O)C(CC(O)C=CC=CC=CCO)OP(=O)(O)O (centres unmarked) [CL 1565-T]	147	142	147	–	157
